Assay results taken from article PMC12833730, “Discovery of a First‐in‐Class Covalent Allosteric SHP1 Inhibitor with Immunotherapeutic Activity” (Angewandte Chemie (International Ed. in English), 2025).

Test system: whole proteome in Jurkat T cells
Test: Chemoproteomic maleimide-biotin competition
Format: cell-based, human
Procedure: To further define the selectivity of M029 for SHP1 and assess its cellular target engagement, a chemoproteomic investigation was performed to identify Cys residues protected by M029 from biotin‐tagged maleimide from the whole proteome in Jurkat T cells.^[ [79] ^] Since proteins labeled by M029 will be prevented from capture by the maleimide‐biotin probe, M029‐modified proteins can be readily identified by determining the ratio between the maleimide‐biotin‐bound proteins in the absence and presence of M029. […] The modest observed off‐target reactivity of M029 is not uncommon for targeted covalent inhibitors, including those FDA‐approved covalent drugs targeting EGFR (Osimertinib),^[ [80], [81] ^] BTK (Ibrutinib),^[ [82] ^] and KRAS (Sotorasib),^[ [83] ^] which also modify other proteins in addition to the intended targets. […]
For chemical proteomics studies, Cells were placed in 1 mL urea lysis buffer (100 mM Tris-HCl, pH 8, 8 M urea) and sonicated on ice for three 1-min rounds at 15% amplitude. […] Total protein concentrations were determined using the bicinchoninic acid (BCA) protein assay kit (Thermo Scientific Pierce, Rockford, IL). […]
Mal-biotin labeled peptides were diluted in 1 mL of PBS with 50 μL of High-Capacity NeutrAvidin slurry (Thermo Scientific). […] The peptide samples were analyzed by using an Evosep One LC coupled to a timsTOF HT mass spectrometer (Bruker). […]

N#Cc1ccsc1NS(=O)(=O)c1ccc(NC(=O)CCl)cc1 [M029, 2-Chloro-N-(4-(N-(3-cyanothiophen-2-yl)sulfamoyl)phenyl)acetamide]
rank of SHP1 (Cys480) among M029-labeled proteins (>2700 peptide fragments identified): second most
number of proteins significantly blocked from maleimide modification (cutoff 10-fold, p 0.05): five
